SMILES strings stand for the structures. Entries after “also recorded” stand apart in the source; their conditions may differ. Counter-ions that a name gives are not always drawn. Like-named read-outs stand apart in the source and are kept apart here.

Data set [1] deals with psychLight1 (Homo sapiens, UniProt P28223, E264Q/I181A). Kind of data set: cell-based. The format is cell-based. How it is done:
(§1) HEK293T cells were grown in DMEM, supplemented with fetal bovine serum (FBS) and penicillin-streptomycin. Cells were trans-fected with Effectene according to the manufacturer's instructions. Prior to imaging, cells were washed with Hank's Balanced Salt Solution (HBSS) supplemented with 2 mM MgCl2 and 2 mM CaCl2). All images were collected in HBSS containing Mg^2+ and Ca^2+.
(§2) HEK293T cells were plated and transfected concurrently 24 h prior to each experiment using the QIAGEN Effectene Transfection
(§3) Dose-response experiments were performed using an Automate Perfusion System. Cells (HEK293T) were grown on 12 mm cover-slips and transfected with psychLight1. The coverslips were then placed into a coverslip holder and washed with 5 mL of HBSS containing 2 mM MgCl2 and 2 mM CaCl2). Cells were perfused first with 5 mL of 0.1% DMSO, then drugs in ascending concentrations from 1 pM to […] were added, with the concentration of DMSO being held constant at 0.10%. […] For the competition studies described in FIG. 19, HEK293T cells were prepared as described above; however, the cells were first exposed to 5 mL of 0.2% DMSO. […] Analysis was performed by taking 3 ROIs on the cell membrane using ImageJ and calculating the mean intensity for each ROI across the time-points. Finally, the DF/F was calculated using the average of the baseline (0.1 or 0.2% DMSO) and the average intensity between each dosage over the average of the baseline.

The test system of data set [2] is psychLight1. As to the kind of experiment: cell-based. Particulars: for EC50: read-out: EC50 (half maximal effective concentration). The format is cell-based, human. The procedure:
as §1, §2, §3

The subject of data set [3] is psychLight2. Kind of data set: PSYLI2 high-content imaging, agonist mode. The format is cell-based, human. How it is done:
(§4) High-Content Imaging Experiments. Glass bottom 96-well plates (P96-1.5H-N, Cellvis) were coated with 50 μg/mL of poly-D-lysine (Sigma, P6407-5MG) and 10 μg/mL laminin (Sigma, L2020) overnight in an incubator (37° C., 5% CO2). […] Immediately prior to an experiment, stock solutions of drugs in DMSO (10 mM) were first diluted 1:100 in imaging media distributed across an empty 96-well plate (treatment plate) in triplicates following a randomized plate map. […] Cells grown in a separate 96-well plate (assay plate) were gently washed (3×) with imaging media, and the wells were filled with an appropriate volume of imaging media for the respective experiment (vide infra).
(§5) For agonist mode, […] of imaging media was added to each well of the assay plate. Wells were then imaged on a Lecia DMi8 using Leica Application Suite X (V3.6.0.20104) at 40×(N.A.=0.6) with 5 regions of interest (ROI) taken per well using the default 5 ROI pattern for each well with no bias to location and no overlap of the ROIs (exposure=350 ms, LED power=80%). Next, 20 μL from the treatment plate was transferred to the assay plate for a total 1:1000 dilution of drug (10 μM drug, 0.1% DMSO). […] All final concentrations of drugs were 10 μM (0.1% DMSO) in agonist mode unless stated otherwise. After 5 min of incubation, the same sites were re-imaged using the same settings.
Once imaging was complete, the images were exported, put into a stack, and analyzed using ImageJ Fiji (ver. 1.51v) by using the rectangle function to draw an ROI around the cell membrane (one cell per image) on both the pre- and posttreatment images. ROI sizes within each plate were kept the same and saved to the ROI manager in ImageJ (ctrl+T). Images were then measured using the “multi measure” function in the ROI manager. Measurements were saved and exported. Analysis of the data was done by taking the average of each individual well's ROIs before and after drugs were added. Then the ΔF/F values for each well were calculated using the following equation: […]
as §4, with “Glass” for “High-Content Imaging Experiments. Glass”, “50 µg/mL” for “50 μg/mL”, “10 pg/mL of” for “10 μg/mL”, “were” for “were first”, “in triplicate” for “in triplicates”, “washed 3×” for “washed (3×)”
as §5, with “agonist mode experiments,” for “agonist mode,”, “media were” for “media was”, “20 pL” for “20 μL”, “plate containing” for “plate for”, “a” for “a total”, “(10 pM as the final concentration in” for “(10 μM drug,”
Once imaging was complete, the images were exported, and analyzed using self-written MATLAB script. Script will be deposit on to Github. In short, segmentation was performed on individual images and a mask highlighting the membrane of the HEK293T cells was generated. Pixel intensities were obtained from the mask-highlighted area and exported into Excel. The ΔF/F values for each well were calculated using the following equation: […]

Data set [4] deals with psychLight2. To be noted: mouse, in vivo. The text has this: Three animals were used for experiments measuring sensor activity in the prelimbic cortex.
A short description of data set [5]: Plate reader screening for compound fluorescence (cell-free). Type of data set: physicochemical. To be noted: 10 μM, excitation 465 nm, emission 518 nm.
Another data set has as its system dLight. Type of data set: cell-based.
Data set [6] concerns psychLight2 response to electrically evoked 5-HT release. The arrangement: species or system mouse. Particulars: 50 mM escitalopram as printed.
The test system of data set [7] is 5-HT levels reported by psychLight2 in DRN, BNST, BLA, OFC. Type of data set: in vivo, mouse. Particulars: 10 mg/kg, 30 mins prior to imaging.
Another data set concerns psychLight. The format is cell-based, human. To be noted: HEK293T cells expressing psychLight.

psychLight1 (Homo sapiens, UniProt P28223, E264Q/I181A), sequence (P28223 whole entry I181A/E264Q, looked up): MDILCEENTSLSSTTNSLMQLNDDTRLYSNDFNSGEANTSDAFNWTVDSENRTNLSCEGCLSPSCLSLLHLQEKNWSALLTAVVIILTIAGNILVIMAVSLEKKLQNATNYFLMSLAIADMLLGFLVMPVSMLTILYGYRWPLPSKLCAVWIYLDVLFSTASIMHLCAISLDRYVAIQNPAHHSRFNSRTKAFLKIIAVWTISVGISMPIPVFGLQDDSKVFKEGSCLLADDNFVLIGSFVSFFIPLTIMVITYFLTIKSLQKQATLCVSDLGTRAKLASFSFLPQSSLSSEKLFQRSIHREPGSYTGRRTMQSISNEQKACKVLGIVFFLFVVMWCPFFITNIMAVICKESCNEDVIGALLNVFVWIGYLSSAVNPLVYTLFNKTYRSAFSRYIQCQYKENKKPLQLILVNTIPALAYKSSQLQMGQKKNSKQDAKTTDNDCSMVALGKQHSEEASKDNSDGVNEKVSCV

Turning to `COc1ccc2[nH]cc(CCN(C)C)c2c1` [5-MeO, 5-methoxy-N,N-dimethyltrytamine], the maximal effect (Emax) at psychLight1 [1] is recorded as 48.4%. In the data set with psychLight1 [2], the “fluorescence intensity change, confocal with psychLight1” value turned out to be 48.4±3.1% and the EC50 came to 157 nM. Besides, in the data set on psychLight2 [3], the “fluorescence intensity change, high content imager with psychLight2” value came out at 24.1±4.6%. Further, in the data set with psychLight2 [4], the “head-twitch response during fiber photometry” value is recorded as “concomitant increase in HTR” and the “psychLight2 fluorescence in prelimbic cortex after injection” value is “sharp increase in fluorescence”.
On to `CCN(CC)C(=O)[C@@H]1C=C2c3cccc4[nH]c(Br)c(c34)C[C@H]2N(C)C1` [BOL-148, 2-bromo-lysergic acid di-ethylamide], for which the “screen outcome in agonist mode” value in the data set on psychLight2 [3] (10 μM compound, hit limit 1 SD from vehicle) is reported as “producing positive signals; also recorded: produced unexpected fluorescence signals”. Besides, the “origin of fluorescence signal, cell-free vs PSYLI2 cells” value in [5] was “due to the inherent fluorescence of these compounds, and not due to activation of the sensor”.
Compound `CN(C)CCc1c[nH]c2ccccc12` [DMT, N,N-dimethyltrytamine] returned a maximal response (Emax) at psychLight1 [1] (HEK-293T) of 12.4%. In addition, the EC50 in the data set with psychLight1 [2] was 627 nM. Also, in the data set with psychLight2 [3], the “screen outcome in agonist mode” value is “false negative”.
Consider `CCN(CC)C(=O)[C@@H]1C=C2c3cccc4[nH]cc(c34)C[C@H]2N(C)C1` [LSD, lysergic acid diethylamide], for which the “activation of dLight” value with dLight is reported as “both activated dLight to the same extent”.
In the case of `CN(C)CCC[C@@]1(c2ccc(F)cc2)OCc2cc(C#N)ccc21` [escitalopram, escitalopram oxalate], the “ΔF/F of psychLight2 response to electrical stimuli” value in data set [6] was 18.4%±4.3%. Also, in data set [7], the “effect on 5-HT dynamics following foot shock” value was “mitigated the reduction in 5-HT levels observed following foot shock; also recorded: delayed the return of elevated 5-HT levels to baseline”.
Turning to `NC[C@H](O)c1ccc(O)c(O)c1` [norepinephrine], in the data set on psychLight, the “response of psychLight to neurotransmitters” value was “do not respond”.

For orientation: Emax means the maximal effect, on the per cent scale that the assay sets.
